Source: patent publication US20040014683A1, “Sugar-derived gellant for hydrogel formation” (priority 2001, published 2004)

Test: Gel-forming ability test (heat to dissolve, cool to 25° C.)
Type: physicochemical
Conditions: 1 mg gelatinizer in water (900 mg) and methanol (100 mg); heated, gradually cooled, left at room temperature approximately 2-5 hours; tube inverted
Description: The dodecanoylaminophenol-β-D-glucopyranoside and dodecanoylaminophenol-β-D-galactopyranoside (1 mg of each) obtained in the above experiments were respectively weighed out into test tubes, and a mixed solvent of water (900 mg) and methanol (100 mg) was added. The mixture was heated to ensure complete dissolution. Subsequently, it was gradually cooled, and left at room temperature for approximately 2-5 hours.
The gel-forming ability was evaluated as follows.
The solvent was water (including a small amount of methanol and ethanol), methanol, ethanol, 1-butanol, t-butanol, tetrahydrofuran, chloroform, dichloromethane, n-hexane, ethyl acetate, dimethylformamide or dimethyl sulfoxide.
One of the aforesaid solvents was mixed in a test tube wherein the two types of gelatinizer prepared in the Examples were sealed such that the concentration of gelatinizer was 0.1-3.0 wt %, and this mixture was heated until the solids dissolved. The resulting solution was cooled to 25° C. for one hour. The gelatinizer and solvent were introduced into a test tube capped by a diaphragm, and heated in the oil bath until the solids dissolved. This solution was cooled to 25° C.

Row | Substance | hydrated gel formation
1 | dodecanoylaminophenol-β-D-galactopyranoside | hydrated gel which did not collapse even when inverted
2 | dodecanoylaminophenol-β-D-glucopyranoside | hydrated gel which did not collapse even when inverted
